The source of these data is US11001563B2, “SSAO inhibitor” (SHANDONG DANHONG PHARMACEUTICAL CO., LTD., priority 2017, dated 2021).

In one data set the target is VAP-1/SSAO (Homo sapiens (Human), UniProt Q16853). Briefly: Human VAP-1 enzyme activity assay (Amplex Red Monoamine Oxidase kit). The format is biochemical. Particulars: 10 nM VAP-1 enzyme, 30 min preincubation, benzylamine substrate; read-out: Human Recombinant VAP-1/SSAO Enzyme Inhibitory Activity IC50. The procedure: Human VAP-1 enzyme activity assay:
The inhibition of the sample on VAP-enzyme activity was measured by using an Amplex® Red Monoamine Oxidase kit (Invitrogen #A12214). 100 nL of the gradiently-diluted to-be-tested compound (solvent DMSO) was added to a 384-well plate. 25 μL of 10 nM VAP-1 enzyme solution was added and incubated for 30 minutes at room temperature. A substrate mixture of VAP-1 enzyme (200 μM Amplex Red, 1 U/mL HRP, 1 mM Benzylamine) was added and incubated for 60 minutes at room temperature. After the incubation, the fluorescent signal was read with a microplate reader Envision (excitation light wavelength 530-560 nm, emission light wavelength 590 nm). The fluorescence signal value after the background signal was removed was analyzed by Prism software, and the IC50 of the sample against the VAP-1 enzyme was calculated.

Data set [1] can be described thus: Compound pharmacokinetic evaluation in SD rats. The class given is in vivo. Particulars: male, Sprague-Dawley, rat, plasma. The procedure:
Experimental purpose: compound pharmacokinetics were tested in SD rats
Sprague Dawley rats (male, 200-300 g, 7-9 weeks old, Shanghai Slack)
(§1) Experimental procedure: the pharmacological characteristics of the compound after intravenous and oral administration were tested in rodents by standard protocol, candidate compounds in the experiment was prepared into clear solutions to be administered to the rats in a single intravenous injection and orally. The intravenous and oral solvents were a certain proportion of an aqueous hydroxypropyl 3-cyclodextrin solution or a physiological saline solution. Whole blood samples within 24 hours were collected, and centrifuged at 3000 g for 15 minutes, the supernatant was separated to obtain plasma samples, 4 times volume of acetonitrile solution containing internal standard was added to precipitate protein, centrifuging was conducted to take the supernatant, equal volume of water was added and centrifuging was conducted to the supernatant to be sampled. The LC-MS/MS analysis method was used to quantitatively analyze the plasma concentration, and the pharmacokinetic parameters such as peak concentration, peak time, clearance rate, half-life, area under the drug concentration-time curve, and bioavailability were calculated.

Data set [2] can be described thus: Compound pharmacokinetic evaluation in CD-1 mice. The class given is in vivo, CD-1 mouse. The following applies: male, mouse, plasma. The procedure:
Experimental purpose: compound pharmacokinetics were tested in CD-1 mice
CD-1 mouse (Male, 25-35 g, 6-9 weeks old, Shanghai Slack);
as §1, with “to the mice in a” for “to the rats in a”, “aqueous hydroxypropyl β-cyclodextrin solution or” for “aqueous hydroxypropyl 3-cyclodextrin solution or”, “conducted to take the supernatant” for “conducted to the supernatant”

A short description of data set [3]: Distribution of compounds in liver and blood of CD-1 mice. The format is in vivo. The following applies: single oral dose. The procedure: Experimental purpose: distribution of compounds in liver and blood of CD-1 mice was tested;
CD-1 Mice (male, 25-35 g, 6-9 weeks old, Shanghai Slack);
Experimental procedure: after oral administration, the drug was distributed in the liver and blood of rodents, candidate compounds in the experiment were formulated into a clear solution to be administered to mice in a single oral dose. The oral solvent was a certain proportion of an aqueous solution of hydroxypropyl P-cyclodextrin or a physiological saline solution. The concentration of the drug in the liver and blood was measured at 1 hour and 4 hours after administration.

The next data set deals with CYP1A2 (Homo sapiens (Human), UniProt P05177). Briefly: Human liver microsomal CYP inhibition assay. The class given is in vitro ADME. The following applies: human liver microsomes, 5-in-1 probe substrate. The procedure: (§2) The purpose of the study was to evaluate the inhibition of the test sample on human liver microsomal cytochrome P450 isozymes (CYP1A2, CYP2C9, CYP2C19, CYP2D6, and CYP3A4) by using the CYP isozyme 5-in-1 probe substrate.
Chain of CYP1A2 (P05177 whole entry): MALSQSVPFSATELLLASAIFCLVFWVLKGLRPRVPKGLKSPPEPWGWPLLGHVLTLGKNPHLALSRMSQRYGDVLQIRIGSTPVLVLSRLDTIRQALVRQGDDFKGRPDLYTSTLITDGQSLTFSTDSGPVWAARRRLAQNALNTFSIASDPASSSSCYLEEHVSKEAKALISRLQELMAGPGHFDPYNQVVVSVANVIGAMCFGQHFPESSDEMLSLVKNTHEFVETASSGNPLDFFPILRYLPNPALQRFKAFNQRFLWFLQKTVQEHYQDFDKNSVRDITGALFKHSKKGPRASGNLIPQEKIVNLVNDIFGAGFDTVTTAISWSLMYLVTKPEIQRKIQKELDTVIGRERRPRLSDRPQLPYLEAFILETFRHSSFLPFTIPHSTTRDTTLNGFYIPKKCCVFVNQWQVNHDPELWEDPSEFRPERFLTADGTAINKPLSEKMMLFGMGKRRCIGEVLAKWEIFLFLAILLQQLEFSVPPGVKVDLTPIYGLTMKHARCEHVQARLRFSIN
(§3) Mixed human liver microsomes (HLM) were purchased from Corning Inc. (Steuben, N.Y., USA) or XenoTech, LLC. (Lenexa, Kans., USA) or other suppliers, and stored at the temperature below −70° C. prior to use.
(§4) A series of diluted test sample working solution were added to an incubation system containing cofactors of human liver microsomes, a probe substrate and a circulation system, and the control without a test substance but containing a solvent was used as enzyme activity control (100%). The concentration of the metabolite produced by the probe sample in the sample was determined by liquid chromatography-tandem mass spectrometry (LC-MS/MS). Non-linear regression analysis was performed on the concentration of the average percent activity of the test sample by using SigmaPlot (V.11). The IC50 value was calculated by a three-parameter or four-parameter recursive logarithmic equation.
(Microsomes from liver hold many membrane-bound enzymes, among them those of drug oxidation.)

The next data set has as its target CYP2C19 (Homo sapiens (Human), UniProt P33261). Briefly: Human liver microsomal CYP inhibition assay. The following applies: human liver microsomes, 5-in-1 probe substrate. The class given is in vitro ADME. On the procedure: as §2, §3, §4
In a further data set the target is CYP2C9 (Homo sapiens (Human), UniProt P11712). Briefly: Human liver microsomal CYP inhibition assay. The format is in vitro ADME. Particulars: human liver microsomes, 5-in-1 probe substrate. The procedure:
as §2, §3, §4

The target in the next data set is CYP2D6 (Homo sapiens (Human), UniProt P10635). Briefly: Human liver microsomal CYP inhibition assay. The class given is in vitro ADME. Particulars: human liver microsomes, 5-in-1 probe substrate. On the procedure:
as §2, §3, §4

For a further data set, the target named is CYP3A4 (Homo sapiens (Human), UniProt P08684). Briefly: Human liver microsomal CYP inhibition assay. The class given is in vitro ADME. The following applies: human liver microsomes, 5-in-1 probe substrate. On the procedure: as §2, §3, §4
Chain of CYP3A4 (P08684 whole entry): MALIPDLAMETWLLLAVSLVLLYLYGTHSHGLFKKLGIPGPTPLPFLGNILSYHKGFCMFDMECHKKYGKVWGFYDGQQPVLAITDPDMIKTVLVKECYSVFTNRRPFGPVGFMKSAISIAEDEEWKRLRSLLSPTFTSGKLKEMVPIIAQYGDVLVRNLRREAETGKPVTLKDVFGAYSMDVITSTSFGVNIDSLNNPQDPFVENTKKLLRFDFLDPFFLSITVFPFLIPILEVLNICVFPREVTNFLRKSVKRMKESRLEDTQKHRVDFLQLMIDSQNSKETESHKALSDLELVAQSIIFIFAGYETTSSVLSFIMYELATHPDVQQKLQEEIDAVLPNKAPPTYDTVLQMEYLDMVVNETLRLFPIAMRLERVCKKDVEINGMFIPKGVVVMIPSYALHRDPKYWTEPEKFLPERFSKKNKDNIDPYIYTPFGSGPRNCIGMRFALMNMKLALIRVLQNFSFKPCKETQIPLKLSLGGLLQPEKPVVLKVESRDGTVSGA
[4] abbreviates: po, read-out: Bioavailability F.
Setting [5] is: single intravenous injection and oral, read-out: Peak Concentration Cmax.

Chain of CYP2D6 (P10635 whole entry): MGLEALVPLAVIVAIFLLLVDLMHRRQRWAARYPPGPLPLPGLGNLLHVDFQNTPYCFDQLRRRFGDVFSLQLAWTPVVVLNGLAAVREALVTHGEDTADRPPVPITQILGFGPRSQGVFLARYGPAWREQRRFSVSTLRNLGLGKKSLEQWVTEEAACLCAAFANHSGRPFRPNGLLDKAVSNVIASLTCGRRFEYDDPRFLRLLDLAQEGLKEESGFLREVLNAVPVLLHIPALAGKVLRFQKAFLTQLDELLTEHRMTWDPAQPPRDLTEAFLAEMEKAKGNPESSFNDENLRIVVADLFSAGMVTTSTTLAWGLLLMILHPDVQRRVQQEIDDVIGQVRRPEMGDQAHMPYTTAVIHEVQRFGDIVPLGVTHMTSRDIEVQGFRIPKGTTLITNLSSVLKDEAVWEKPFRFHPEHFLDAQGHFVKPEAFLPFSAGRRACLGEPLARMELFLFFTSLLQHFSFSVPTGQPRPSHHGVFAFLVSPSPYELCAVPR
Chain of CYP2C19 (P33261 whole entry): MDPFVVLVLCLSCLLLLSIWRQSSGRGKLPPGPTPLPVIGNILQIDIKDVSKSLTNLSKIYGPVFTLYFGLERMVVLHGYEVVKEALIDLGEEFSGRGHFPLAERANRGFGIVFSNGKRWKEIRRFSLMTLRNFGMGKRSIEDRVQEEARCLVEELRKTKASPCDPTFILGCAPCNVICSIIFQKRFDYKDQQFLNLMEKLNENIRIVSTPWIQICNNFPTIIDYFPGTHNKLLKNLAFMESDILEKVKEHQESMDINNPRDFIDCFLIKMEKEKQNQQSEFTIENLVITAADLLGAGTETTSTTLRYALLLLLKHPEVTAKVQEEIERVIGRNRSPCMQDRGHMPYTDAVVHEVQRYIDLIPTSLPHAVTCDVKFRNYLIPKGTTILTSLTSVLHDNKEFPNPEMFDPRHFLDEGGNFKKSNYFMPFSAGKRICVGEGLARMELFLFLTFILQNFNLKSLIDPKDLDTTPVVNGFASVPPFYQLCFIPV
Chain of VAP-1/SSAO (Q16853 whole entry): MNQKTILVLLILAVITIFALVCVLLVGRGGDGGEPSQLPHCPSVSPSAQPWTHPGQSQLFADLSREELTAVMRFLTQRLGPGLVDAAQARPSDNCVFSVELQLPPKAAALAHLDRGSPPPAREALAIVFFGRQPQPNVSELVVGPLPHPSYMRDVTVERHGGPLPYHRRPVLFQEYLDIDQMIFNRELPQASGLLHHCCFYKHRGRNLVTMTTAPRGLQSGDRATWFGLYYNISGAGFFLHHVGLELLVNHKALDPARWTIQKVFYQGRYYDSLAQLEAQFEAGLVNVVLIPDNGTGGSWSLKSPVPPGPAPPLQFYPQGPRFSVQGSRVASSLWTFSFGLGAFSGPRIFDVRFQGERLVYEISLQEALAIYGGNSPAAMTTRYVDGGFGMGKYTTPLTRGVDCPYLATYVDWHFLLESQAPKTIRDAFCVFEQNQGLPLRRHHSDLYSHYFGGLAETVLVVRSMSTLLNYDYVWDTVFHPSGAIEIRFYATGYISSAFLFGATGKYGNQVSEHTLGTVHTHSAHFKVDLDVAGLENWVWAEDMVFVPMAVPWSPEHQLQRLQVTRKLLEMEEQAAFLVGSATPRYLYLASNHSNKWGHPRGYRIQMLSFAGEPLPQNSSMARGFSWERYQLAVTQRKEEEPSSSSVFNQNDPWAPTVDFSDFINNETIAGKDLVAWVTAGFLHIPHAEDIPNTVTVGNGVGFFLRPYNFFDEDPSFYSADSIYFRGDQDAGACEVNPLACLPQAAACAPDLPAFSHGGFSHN
Chain of CYP2C9 (P11712 whole entry): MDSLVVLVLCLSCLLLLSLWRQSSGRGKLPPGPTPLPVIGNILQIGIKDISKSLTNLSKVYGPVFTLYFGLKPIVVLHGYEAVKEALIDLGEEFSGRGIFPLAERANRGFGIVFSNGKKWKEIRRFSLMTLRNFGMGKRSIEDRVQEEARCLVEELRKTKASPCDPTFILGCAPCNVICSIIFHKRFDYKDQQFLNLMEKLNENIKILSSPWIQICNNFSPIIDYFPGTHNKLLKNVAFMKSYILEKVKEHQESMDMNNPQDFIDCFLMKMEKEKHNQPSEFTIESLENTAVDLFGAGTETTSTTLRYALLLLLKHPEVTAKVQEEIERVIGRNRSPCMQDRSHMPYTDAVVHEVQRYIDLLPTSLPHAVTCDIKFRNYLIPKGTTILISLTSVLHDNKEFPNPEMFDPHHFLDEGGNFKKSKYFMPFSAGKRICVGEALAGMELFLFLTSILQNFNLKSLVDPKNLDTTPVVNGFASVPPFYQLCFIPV

As a reminder, the Tmax is the time from dosing to the highest level. In the case of `Cl.Cn1nc(-c2ccc(OC/C(=C/F)CN)cc2)nc1C(F)F` [WX126], the IC50 at VAP-1/SSAO is 0.0002 µM; on CYP1A2, 5 µM; at CYP2C19, 17 µM; on CYP2C9, 24 µM; at CYP2D6, 36 µM; on CYP3A4, greater than 50 µM. The time of peak concentration (Tmax) in data set [1] (oral, read-out: Peak Time Tmax) came to 1.5 h; in data set [2] (oral, read-out: Peak Time Tmax) it was 0.5 h. The results for the bioavailability in data set [1] (setting [4]) and in [2] (setting [4]) were 99% and 102%, respectively. Further, the AUC worked out at 9.31 µM·h in data set [1] (read-out: Concentration Integral AUC) and 6.49 µM·h in data set [2] (oral, read-out: Concentration Integral AUC). Also, the Cmax in [1] (setting [5]) is 2340 nM; in data set [2] (setting [5]) it was 3530 nM. Besides, the “Liver Concentration” value in [3] (@1.0 hour) was determined as 13520; in data set [3] (@4.0 hour), 3364. Also, the “Liver Concentration/Plasma Concentration ratio” value in data set [3] (@1.0 hour) turned out to be 15; in data set [3] (@4.0 hour) it was 17. Also, the “Plasma Concentration” value amounted to 934 in [3] (@1.0 hour) and 190 in data set [3] (@4.0 hour).
